Legend:
[1] = system: transcripts that contain shorter, non-pathogenic r(G4C2) repeats; assay: RT-qPCR of eight transcripts with shorter, non-pathogenic r(G4C2) repeats in C9orf72 iPSCs; format: cell-based, human; conditions: repeat length 2-4, RT-qPCR
Method: Measuring Levels of C9orf72 and C9orf72 Variants by RT-qPCR. LCLs and iPSCs were seeded in 6-well plates (˜10^6 cells in 2 mL of Basal medium) and incubated overnight at 37° C. with 5% CO2. LCLs were then treated with compound for 4 days without media changes; patient-derived iPSCs were seeded at ˜80% confluency and treated, as described above. Treatment with either a G4C2-ASO or Control-ASO (100 nM) was used as a control. ASO transfection was achieved using Lipofectamine RNAiMax (Life Technologies), following the manufacturer's protocol. After 4 days of treatment (with either compound or ASO), total RNA was extracted using the Quick-RNA Miniprep Kit (Zymo Research). RNA was quantified via Nanodrop and ˜1 μg of total RNA was reverse transcribed using qScript (Quantbio), according to the manufacturer's guidelines. RT-qPCR was performed on a QuantStudio™ Real-Time PCR Instrument (Applied Biosystems) using Power SYBR Green Master Mix (Applied Biosystems). Expression levels of mRNAs were normalized to GAPDH. See Table 2 for a list of primers used.

[2] = system: C9orf72 and transcriptome; assay: RNA-seq in c9ALS/FTD patient-derived iPSCs; format: cell-based, human
Method: (§1) Total RNA integrity was confirmed by Agilent 2100 Bioanalyzer RNA nano chip, and the quantity was measured by Qubit 2.0 Fluorometer (Invitrogen). The library preparation was performed using NEBNext Ultra II Directional RNA kit (NEB, E7760) in combination with NEBNext rRNA depletion module (NEB, E6310) and RNA fragmentation module (NEB, E6150S), following manufacturer's recommendations. Briefly, a total of 200 ng RNA was first processed with depleted of ribosomal RNA, and then randomly fragmented to achieve range between 150 to 300 nucleotides. The fragmented RNAs were random primed for the first-strand synthesis, and the second strand was synthesized with dUTPs. The strand information is thus preserved by using USER enzyme (Uracil-specific excision reagent). The cDNA was PCR amplified and pooled equimolar to load onto the NextSeq 500 v2.5 flow cell and sequenced with 2×40 bp paired-end method. The output fastq files were aligned using STAR 3^5. The read counts of specific regions were extracted using samtools.^36 The global differential gene expression analysis was performed using featureCounts and Deseq2.^37,38

[3] = system: poly(GP), poly(GA) and TDP-43 inclusions; assay: Immunohistochemistry of cortex slices of +/+PWR500 mice; format: in vivo, mouse; conditions: IHC
Method: A total of 20 age- and gender-matched mice (12 +/+PWR500 [5 Male and 7 Female] and 8 WT [4 Male and 4 Female]), ranging from 18-21 weeks old were used in therapeutic efficacy studies (Table 4). Mice were treated with a single bolus injection of 33 nmol of compound 2 formulated in 1% (v/v) DMSO/99% water, administered by an intracerebroventricular injection (ICV). Three weeks post injection, mice were euthanized, and tissue was harvested for study.
Postmortem brain tissue was harvested and sliced along the sagittal plane at the midline. The right hemisphere was stored for 48 hours in 10% neutral buffered formalin. Tissue processing, embedding and sectioning were then performed by the Scripps Florida Histology Core. Formalin-fixed tissue was processed on a Sakura Tissue-Tek VIP 5 paraffin processor. Tissue was first embedded in paraffin, sectioned at 4 μm, and then mounted on positively charged slides. Slides were stained with primary antibody (see below) using the Leica BOND-MAX platform. Slides were then subjected to the Leica Refine Detection Kit containing the secondary polymer, DAB chromagen, and the counterstain. Slides were dehydrated in graded alcohols and cleared in xylene, before being cover slipped with a permanent mounting medium (Cytoseal 60; Thermo Scientific).

d(G4C2)8 = assay: Affinity by MST, DNA control d(G4C2)8; format: binding; conditions: d(G4C2)8, concentrations up to 20 μM
Method: Affinity measurements were performed by MST using a Monolith NT.115 system (NanoTemper Technologies) with 5′-Cy5-labeled r(G4C2)8 (SEQ ID NO: 1), 5′-Cy5-labeled d(G4C2)8 (SEQ ID NO: 1), and 5′-Cy5-labeled base pair control r(G2C2)4GAAA(G2C2)4 (SEQ ID NO: 49). All oligos were deprotected according to the manufacturer's recommended protocol. Samples were prepared as previously described^30. Briefly, RNA or DNA (5 nM) was folded in 1×MST Buffer (8 mM Na2HPO4, 185 mM NaCl, 1 mM EDTA) by heating at 95° C. for 5 minutes and slowly cooling to room temperature. Tween-20 was then added to a final concentration of 0.05% (v/v). Serial dilutions of compound in 1×MST Buffer containing 5 nM folded nucleic acid were then carried out to yield the desired compound concentrations. Samples were incubated for 90 minutes at room temperature and then loaded into premium capillaries (NanoTemper Technologies). The following parameters were used on the Monolith NT.115 system: 10% LED, 20-80% MST power, Laser-On time=30 s, Laser-Off time=5 seconds. Fluorescence was detected using excitation wavelengths of 605-645 nm and emission wavelengths of 680-685 nm. The resulting data were analyzed by thermophoresis analysis and fit using the quadratic binding equation in the MST analysis software (NanoTemper Technologies). The dissociation constant was determined using Equation 1. […]

[4] = system: C9orf72 transcript degradation (RNase L, hRRP6, XRN1, XRN2); assay: siRNA knock-down co-treatment experiments in c9ALS/FTD iPSCs (RT-qPCR); format: cell-based, human
Method: iPSCs were cultured as described in the “Cell Culture,” section. Briefly, iPSCs were plated into 6-well Matrigel coated plates and treated with compound and siRNA for four days. On day one, fresh media was added to the cells and siRNAs were transfected using Lipofectamine RNAiMax (Life Technologies), following the manufacturer's protocol. Cells were incubated for 1 hour at 37° C. and then compound was added to a final concentration of 50 nM (DMSO 0.1% (v/v)). Cells were incubated for 48 h, then media was replaced and the siRNA re-transfected. Following a 1 hour incubation, cells were treated with compound and then incubated for another 48 hours. After a total of 96 hours of treatment, RNA was extracted and RT-qPCR was performed following the protocol outline in the “Measuring Levels of C9orf72 and C9orf72 Variants by RT-qPCR,” section.

[5] = system: C9orf72 and transcriptome; assay: RNA-seq in iPSCs from healthy donors; format: cell-based, human; conditions: healthy donor iPSCs
Method: as §1

[6] = 20 nM hRRP6-targeting siRNA, 50 nM compound

## CCOC(=O)C1=C(Nc2ccccc2)S/C(=C\c2ccc(OCCOCCOCCOCCNC(=O)CCCOc3ccc4c(c3)c3cc5c(C(=O)N[C@H](C)CN(C)C)nccc5c(C)c3n4C)c(O)c2)C1=O [ALS Compound Formula I]
[1]
  short r(G4C2) repeat-containing transcripts significantly reduced (of eight): only one transcript, SOCS1, was significantly reduced
[2]
  SOCS1 regulation by RNA-seq: not found to be significantly down-regulated
[2]; 50 nM
  intron 1:exon 2 ratio: significantly reduced
  off-targets transcriptome-wide: minimal off-targets
  total C9orf72 read counts: no effect
[3]
  TDP-43 inclusions: significantly reduced
  poly(GA) inclusions: significantly reduced
  poly(GP) inclusions: significantly reduced
d(G4C2)8
  saturable binding: No saturable binding
[4]; 20 nM RNase L-targeting siRNA, 50 nM compound
  intron 1 and exon 2-3 degradation under RNase L knock-down: ablation of both intron 1 and exon 2-3 degradation
[4]; 20 nM XRN1-targeting siRNA, 50 nM compound
  intron 1 decay and C9orf72 cleavage under XRN1 knock-down: ablation of intron 1 decay and C9orf72 cleavage
[4]; 20 nM XRN2-targeting siRNA, 50 nM compound
  intron 1 decay and C9orf72 cleavage under XRN2 knock-down: no effect on either
[4]; [6]
  exon 2-3 cleavage under hRRP6 knock-down: no effect
  intron 1 decay under hRRP6 knock-down: ablation of intron 1 decay
[4]; both siRNAs, compound co-treatment
  degradation of the transcript under RNase L and hRRP6 knock-down together: comparable to RNase L knock-down alone
[5]
  C9orf72 read count: no effect
  intron 1:exon 2 ratio: no effect
  off-target effects transcriptome-wide: minimal off-target effects
